# From patent publication US20250049904A1, “IMMUNOSTIMULATORY COMPOSITIONS” (VICTORIA LINK LIMITED, priority 2021, published 2025)
# Experiments:
# Type in all cases: in vivo, C57BL/6 mice
# [1] = tested on: tissue-resident memory T cells (TRM cells); experiment: LPX-mRNA vaccination of mice i.v.; antigen-specific TRM, TEM and TCM cells in liver and spleen by flow cytometry; settings: agonist in LPX-mOVA vaccine, OT-I transfer, liver 30 days later; for proportion of liver TRM among all vaccine-induced antigen-specific T cells (TRM cell-inducing capability): relative to α-GalCer vaccine
# liver TRM cells = experiment: LNP-mRNA vaccines, prime and boost; TRM cells in liver and spleen; settings: i.m. and i.v.
# Description: Vaccines were prepared with mRNA encoding OVA encapsulated in LNPs (LNP-mOVA-CI058). Groups of mice (n=5) were vaccinated twice, with an interval of either two weeks, or eight weeks, and then liver and spleen were collected for analysis of T cell responses 28 days after the last dose. (A) Percentages of antigen-specific TRM cells, TEM cells and TCM cells are shown for liver. Black bars: TRM cells; white bars: TEM cells; grey bars: TCM cells. (B) Percentages of antigen-specific TRM cells, TEM cells and TCM cells are shown for spleen. Black bars: TRM cells; white bars: TEM cells; grey bars: TCM cells. (C) Mean number of TRM cells in liver for each treatment group (±SEM); dots represent individual mice. *P<0.05.
# Vaccines were prepared with mRNA encoding OVA encapsulated in LNPs (LNP-mOVA-CI536). Groups (n=9-10) of naïve C57BL/6 mice (i.e., no OT-I transfer) were vaccinated once, or twice with an interval of two weeks, with the liver and spleen collected for analysis of T cell responses 28 days after the last dose. (A) Numbers of antigen-specific TRM cells for liver. […] Data were log transformed and analysed by One-way ANOVA with Tukey's post test **P<0.01, ***P<0.001, ****P<0.0001. […]
# LNP-mRNA vaccines comprising an ionizable lipid are an established formulation strategy to deliver mRNA vaccines safely and effectively. Therefore, the capacity of LNP-mRNA vaccines containing CI536 and the ionizable lipid DLin-MC3-DMA to stimulate liver TRM was evaluated. […] The memory T cell responses were assessed 28 days after the prime and boost so the impact of the second dose could be assessed. […]
# Lymphocytes were stained with monoclonal antibodies for: CD8a (53-6.7), Ly5.1 (A20), CD44 (IM7), CXCR6 (SA051D1), CX3CR1 (SA011F11), from BioLegend (Australian Biosearch, Karrinyup, WA. Australia), and CD62L (MEL-14) and CD69 (H1.2F3), from eBioscience (Jomar Life Research, Scoresby, VIC, Australia). […] Single-color positive control samples were used to adjust compensation and cells were analyzed by flow cytometry on a LSR Fortessa (BD Biosciences), or LSRII SORP using Flowjo software (Tree Star Inc.).
# [2] = tested on: tissue-resident memory T cells (TRM cells); experiment: LPX-mRNA vaccination of mice i.v.; antigen-specific TRM, TEM and TCM cells in liver and spleen by flow cytometry; settings: LPX-mOVA vaccines i.v., OT-I cell transfer, 28 days after vaccination
# Description: FIG. 1 provides a graphical representation showing that LPX-mRNA vaccines containing CI058 induce high levels of liver TRM cells. Liposomes were prepared with DOTMA and DOPE lipids and complexed with mRNA encoding chicken ovalbumin (OVA) to give vaccine LPX-mOVA. Additional vaccines were prepared by including either the prototypical NKT cell agonist α-GalCer (LPX-mOVA-α-GalCer) or the derivative CI058, which has BODIPY attached via an —S in the 6 position of the galactose (LPX-mOVA-CI058). Recipient C57BL/6 mice were transferred 50,000 naïve OVA-specific TCR-transgenic CD8+ T cells (OT-I cells) to enhance the precursor frequency of antigen-specific T cells to aid detection of vaccine-induced responses. A day later, groups of mice (n=5-6) were vaccinated intravenously (0.08 nmol) with the different vaccines; a naive mouse was left untreated. After 28 days, mice were killed and liver and spleen collected for analysis of induced T cell response by flow cytometry. Antigen-specific cells were identified using fluorescent MHC/peptide tetramers containing the targeted CD8^+ T cell epitope recognised by OT-I cells, and expression of Ly5.1, a congenic marker expressed by the OT-I mouse strain and not recipient C57BL/6 mice. The antigen-specific cells were further characterised as resident-memory T cells (TRM cells; CD8^+ Ly5.1^+ […] CD62L^low cells), effector memory T cells (TEM cells; CD8^+ Ly5.1^+ CD44^+ CD69^− CD62L^low cells) or central memory cells (TCM cells; CD8^+ Ly5.1^+ CD44^+ CD69^− CD62Lhigh cells). (A) Percentages of TRM, TEM and TCM OT-I cells in each treatment group in liver. Mean±SEM for each T cell subset are shown; statistical analysis relates only to pairwise comparisons of the percentage of TRM cells between the treatment groups. Black bars: TRM cells; white bars: TEM cells; grey bars: TCM cells. *P<0.05, **P<0.01, ***P<0.001, ****P<0.0001. One-way ANOVA. (B) Percentages of RM, TEM and TCM OT-I cells in each treatment group in spleen. (C) Mean number of TRM cells in liver for each treatment group (±SEM); dots represent individual mice. Black bars: TRM cells; white bars: TEM cells; grey bars: TCM cells. *P<0.05, **P<0.01, ***P<0.001, ****P<0.0001. One-way ANOVA.
# Dose response of LPX-mOVA-α-GalCer versus LPX-mOVA-CI058 vaccines. Analysis was in C57BL/6 mice, without transfer of OT-I cells, so endogenous T cell responses were monitored on a normal T cell repertoire. Groups of 5 mice were used, and vaccines were administered intravenously. After 28 days, mice were killed and liver tissue collected for analysis of induced T cell response by flow cytometry. Antigen-specific cells were identified using fluorescent MHC/peptide tetramers, and further characterised as resident-memory T cells (TRM CD8^+ CD44^+ CD69^+ CXCR6^+ CD49a^+ CD62L^low cells), effector memory T cells (TEM CD8^+ CD44^+ CD69^− KLRG1^+ CXCR3^+ CD62L^low cells) or central memory cells (TCM CD8^+ CD44^+ CD69^− CD62L^high cells). At the same timer, NKT cells in the liver were also evaluated using fluorescent CD1d/α-GalCer tetramers. These were characterised for expression of different markers of activation, including PD-1 (only the latter is shown here). White circles: LPX-mOVA-α-GalCer; black circles: LPX-mOVA-CI058. (A) Graph showing mean number of TRM cells in liver for each treatment group (±SEM) overdose range. ****P<0.0001. (B) Graph showing mean level of expression of the “invariant” NKT cell-associated TCR for each treatment group (±SEM), defined as level of binding of fluorescent CD1d/α-GalCer tetramers and expressed as mean fluorescence index. ****P<0.0001 (C) Graph showing mean level of expression of PD-1 on NKT cells for each treatment group (±SEM). **P<0.01
# To examine whether a prodrug mechanism is involved in enhanced TRM cell induction, LPX-mOVA-CI058 vaccines were compared to vaccines containing different NKT cell agonist prodrugs. […]
Compound,overall TRM cell accumulation in the liver [1],proportion of liver TRM among all vaccine-induced antigen-specific T cells (TRM cell-inducing capability) [1],also measured
CCCCCCCCCCCCCCCCCCCCCCCCCC(=O)N[C@@H](CO[C@H]1OC(CSCCCCCNC(=O)CCC2=C3C(C)=CC(C)=[N+]3[B-](F)(F)n3c(C)cc(C)c32)[C@H](O)C(O)[C@@H]1O)[C@H](O)[C@H](O)CCCCCCCCCCCCCC (stereo partly drawn) [CI534],"All but two of the 6'S-substituted agonists (CI534, CI540)",significantly enhanced relative to vaccines with α-GalCer,
"CCCCCCCCCCCCCCCCCCCCCCCCCC(=O)N[C@@H](CO[C@H]1O[C@H](CSCC(N)=O)[C@H](O)[C@H](O)[C@H]1O)[C@H](O)[C@H](O)CCCCCCCCCCCCCC [CI536, (2S,3S,4R)-1-(6-Deoxy-6-((2-amino-2-oxoethyl)thio)-α-D-galactopyranosyloxy)-2-hexacosanoylamino-3,4-octadecandiol]",,,"proportion of TEM in the spleen (liver TRM cells; LNP with DLin-MC3-DMA, 28 days): higher proportion of TEM; proportion of TRM in liver compared to spleen (liver TRM cells; LNP with DLin-MC3-DMA, prime or prime-boost, no T cell transfer, 28 days): increased proportion of liver TRM in the liver as compared to the spleen; number of liver TRM (liver TRM cells; boosted groups, two-week interval, vs PBS control): highest number of liver TRM compared to PBS control group"
CCCCCCCCCCCCCCCCCCCCCCCCCC(=O)N[C@@H](CO[C@H]1OC(CSCCCCCNC(=O)OCc2c3ccccc3cc3ccccc23)[C@H](O)C(O)[C@@H]1O)[C@H](O)[C@H](O)CCCCCCCCCCCCCC (stereo partly drawn) [CI540],"All but two of the 6'S-substituted agonists (CI534, CI540)",,
CCCCCCCCCCCCCCCCCCCCCCCCCC(=O)N[C@@H](CO[C@H]1OC(CN)[C@H](O)C(O)C1O)[C@H](O)[C@H](O)CCCCCCCCCCCCCC (stereo partly drawn) [CN168],,significantly enhanced relative to vaccines with α-GalCer,
CCCCCCCCCCCCCCCCCCCCCCCCCC(=O)N[C@@H](CO[C@H]1O[C@H](CS)[C@H](O)[C@H](O)[C@H]1O)[C@H](O)[C@H](O)CCCCCCCCCCCCCC [CN237],,significantly enhanced relative to vaccines with α-GalCer,
"CCCCCCCCCCCCCCCCCCCCCCCCCC(=O)N[C@@H](CO[C@H]1O[C@H](CO)[C@H](O)[C@H](O)[C@H]1O)[C@H](O)[C@H](O)CCCCCCCCCCCCCC [α-GalCer, reference compound]",,,proportion of TRM cells among antigen-specific T cells in liver and spleen [2]: low proportions of TRM cells in liver and spleen
